Reference: patent publication US20200163854A1, “LIFE-EXTENDING AGENT, ANTI-AGING AGENT, COSMETIC, AND FOOD/BEVERAGE COMPOSITION” (KYOTO UNIVERSITY, priority 2017, published 2020)
Read-outs that look alike come from different tables or passages of the source.

How the values were obtained:
[1] = tested on: Drosophila flies, premature aging strain (sod1[n1] mutants), male; conditions: vs control medium
Procedure: Mutants of adult Drosophila flies (male) containing Cu/Zn-SOD with reduced activity due to amino acid substitution (sod1[n1]) were bred in a plastic tube having a diameter of 25 mm, and fed with a simple medium (instant medium) for Drosophila that contains D-proline (D-Pro) at a concentration of 20, 60, 200, or 400 μg/ml, or L-proline (L-Pro) at a concentration of 400 μg/ml, followed by measuring the life span of the flies. […] For the control, a simple medium to which no D-Pro or L-Pro was added was used.
Mutants of adult Drosophila flies (male) containing Cu/Zn-SOD with reduced activity due to amino acid substitution (sod1[n1]) were bred in a plastic tube having a diameter of 25 mm, and fed with a simple medium (instant medium) for Drosophila that contains D-proline (D-Pro) at a concentration of 400 μg/ml, or D-aspartic acid (D-Asp) at a concentration of 60, 200, or 400 μg/ml, followed by measuring the life span of the flies. […] For the control, a simple medium to which no D-Pro or D-Asp was added was used.
Mutants of adult Drosophila flies (male) containing Cu/Zn-SOD with reduced activity due to amino acid substitution (sod1[n1]) were bred in a plastic tube having a diameter of 25 mm, and fed with a simple medium (instant medium) for Drosophila that contains D-proline (D-Pro) at a concentration of 400 μg/ml, or D-hydroxyproline (D-HP) at a concentration of 60, 200, or 400 μg/ml, followed by measuring the life span of the flies. […] For the control, a simple medium to which no D-Pro or D-HP was added was used.

[2] = tested on: spleen-derived mononuclear cells (T cells with senescence marker); conditions: 0.2 mg/ml in water, free intake, Day 495; compared to control group or L-proline group
Procedure: (§1) After euthanasia on Day 495, the spleen was removed and ground through a 0.45-μM strainer to prepare a suspension of spleen-derived cells (FIG. 4). After centrifugation at 1000 g for 5 minutes, the supernatant was removed by suction. Thereafter, 2 ml of ammonium chloride hemolytic agent (distilled water containing 8.99 mg/ml of NH4Cl, 1 mg/ml of KHCO3, and 37 μg/ml of EDTA4Na) was added to the cell pellets, followed by suspension. The resulting product was then allowed to stand at room temperature for 2 minutes. Subsequently, 10 ml of RPMI 1640 medium with 10% FBS was added thereto, the mixture was centrifuged at 1000 g for 5 minutes, and the supernatant was removed by suction. Then, 5 ml of RPMI 1640 medium with 10% FBS was added thereto to prepare a cell suspension (spleen-derived mononuclear cells).
After placing 1×10^6 spleen-derived mononuclear cells of Example 4 into a 1.5-ml Eppendorf tube, centrifugation was performed at 900 g for 5 minutes. Then, the supernatant was removed by suction, and 50 μl of FACS buffer (PBS(−) in which 0.5% BSA, 0.01% NaNO, and 1 mM EDTA were dissolved) was added thereto. Thereafter, incubation was performed on ice for 20 minutes with an FITC-labeled mouse anti-CD27 antibody (NOVUS; NPB-1-44021) and a PE-labeled mouse anti-CD62L antibody (ABGENT; ATB10190). […]

[3] = tested on: Menin gene and Bach2 gene mRNA; conditions: 0.2 mg/ml in water, free intake, Day 495; compared to control group or L-proline group
Procedure: as §1
Total RNA was extracted from 1×10^5 spleen-derived mononuclear cells of Example 4 using an RNeasy Mini Kit, produced by Qiagen. […] The mRNA levels of the Menin gene and the Bach2 gene were quantified as a ratio relative to the β-actin gene mRNA level, and calculated taking the value of the spleen-derived mononuclear cells of the control group as 1.

[4] = mixed with feed at 60, 200 or 400 μg/ml

N[C@H](CC(=O)O)C(=O)O [D-aspartic acid]
life span of aging-promoting adult Drosophila flies ([1]; mixed with feed at 400 μg/ml): extends the life span
life span of aging-promoting adult Drosophila flies [1, 4]: extended the life span of Drosophila flies in a concentration-dependent manner

O=C(O)[C@H]1C[C@H](O)CN1 [D-hydroxyproline]
life span of aging-promoting adult Drosophila flies ([1]; mixed with feed at 400 μg/ml): extends the life span
life span of aging-promoting adult Drosophila flies [1, 4]: extended the life span of Drosophila flies in a concentration-dependent manner

O=C(O)[C@H]1CCCN1 [D-proline]
number of T cells with a senescence marker of CD62-negative or CD27-negative [2]: significantly reduced number
mRNA expression of the Bach2 gene (ratio to β-actin, control = 1) [3]: higher mRNA expression
mRNA expression of the Menin gene (ratio to β-actin, control = 1) [3]: higher mRNA expression
life span of aging-promoting adult Drosophila flies ([1]; mixed with feed at 400 μg/ml): significantly higher effect
life span of aging-promoting adult Drosophila flies ([1]; mixed with feed at 20, 60, 200 or 400 μg/ml): dose-dependently extends the life span

O=C(O)[C@@H]1CCCN1 [L-proline, reference compound]
life span of aging-promoting adult Drosophila flies ([1]; mixed with feed at 400 μg/ml): no effect
